Laboratory results: patent publication US10233186B2, “Inhibitors of activin receptor-like kinase” (BLUEPRINT MEDICINES CORPORATION, priority 2016, dated 2019)

Experiments:
[1] = biological target: T1, human ALK2 R206H (Homo sapiens, UniProt Q04771, R206H); test: Cell-based ALK2-R206H cell activity assay (Smad1-Ser463/Ser465 phosphorylation by AlphaLISA in HEK293-ALK2-R206H cells); conditions: read-out: Cell Line (Cell Assay IC50)
T1 construct: expressed in transfected cells; host or cells: HEK293 (ATCC CRL1573), lentivirus transduction, blasticidin selection
T1 sequence (Q04771 21-509 R206H): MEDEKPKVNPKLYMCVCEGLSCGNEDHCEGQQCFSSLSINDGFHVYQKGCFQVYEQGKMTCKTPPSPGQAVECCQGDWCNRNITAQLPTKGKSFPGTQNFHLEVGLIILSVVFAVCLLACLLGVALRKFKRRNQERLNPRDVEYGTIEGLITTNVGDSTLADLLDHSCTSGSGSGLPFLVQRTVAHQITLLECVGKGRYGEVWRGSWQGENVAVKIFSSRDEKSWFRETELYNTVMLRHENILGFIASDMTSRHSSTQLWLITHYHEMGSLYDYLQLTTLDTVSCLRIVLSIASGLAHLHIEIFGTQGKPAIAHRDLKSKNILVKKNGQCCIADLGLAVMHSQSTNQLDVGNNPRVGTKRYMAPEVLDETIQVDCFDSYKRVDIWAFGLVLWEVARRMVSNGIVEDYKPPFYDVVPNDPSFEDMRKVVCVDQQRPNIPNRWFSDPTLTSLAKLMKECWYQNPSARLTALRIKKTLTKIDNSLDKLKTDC
How it was run: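 Stable HEK293 cells expressing C-terminally FLAG-tagged human ALK2 R206H (lentiviral, blasticidin-selected) were treated with compounds in 10-point, 3-fold dilutions from 10 μM or 1 μM top, in duplicate. Smad1 Ser463/Ser465 phosphorylation was read by AlphaLISA.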

[2] = biological target: T2, ALK2 R206H (GST-tagged mutant ALK2) (Homo sapiens, UniProt Q04771, R206H); test: ALK binding assay (LANTHASCREEN TR-FRET competitive binding, displacement of Kinase Tracer 178); conditions: ALK2 R206H, LANTHASCREEN TR-FRET competitive binding; read-out: Binding Assay (IC50)
T2 construct: purchased Carna Bioscience or ThermoFisher 09-148 or PV6232
T2 sequence (Q04771 21-509 R206H): T1 sequence (Q04771 21-509 R206H)

Row | SMILES | IC50 [1] [nM] | IC50 [2] [nM]
1 | CCNC(=O)N1CCN(c2ccnn3cc(-c4cc5c(s4)CN(C(C)C)CC5)cc23)CC1 [Compound 192] | < 100 | < 10
2 | CC(C)NC(=O)N1CCN(c2ccnn3cc(-c4ccc(C5COCCN5C(C)C)cc4)cc23)CC1 (centres unmarked) [Compound 594] | < 100 | < 10
3 | O=C(C1CC1)N1CCN(c2ccnn3cc(-c4ccc(C5CCCNC5)cc4)cc23)CC1 (centres unmarked) [Compound 123] | 100 to 500 | < 10
4 | CC(C)N[C@@H](CO)c1ccc(-c2cc3c(N4CCN(C(=O)C5CC5)CC4)ccnn3c2)cc1 [Compound 770] | < 100 | < 10
5 | CC(C)N1CCc2cc(-c3cc4c(N5CCN(C(=O)C6CC6)CC5)ccnn4c3)sc2C1 [Compound 187] | < 100 | < 10
6 | CC(C)N1CCC(c2ccc(-c3cc4c(N5CCN(C(=O)C6CC6)CC5)ccnn4c3)cc2)(C(F)(F)F)CC1 [Compound 727] | < 100 | < 10
7 | CCOC(=O)N1CCN(c2ccnn3cc(-c4ccc(C5CN(C(C)C)C5)cc4)cc23)CC1 [Compound 182] | < 100 | < 10
8 | CCN1CCC(c2ccc(-c3cc4c(N5CCN(C(=O)C6CC(C)(O)C6)CC5)ccnn4c3)cc2)CC1 (centres unmarked) [Compound 383] | < 100 | < 10
9 | O=C(OC1COC1)N1CCN(c2ccnn3cc(-c4ccc(N5CCNCC5)cc4)cc23)CC1 [Compound 775] | < 100 | < 10
10 | O=C(C1CC1)N1CCN(c2ccnn3cc(-c4ccc(C5CCNCC5(F)F)cc4)cc23)CC1 (centres unmarked) [Compound 238] | 100 to 500 | < 10
11 | CC(C)N1CCN[C@@](C)(c2ccc(-c3cc4c(N5CCN(C(=O)C6CC6)CC5)ccnn4c3)nc2)C1 [Compound 576] | < 100 | < 10
12 | COC1(c2ccc(-c3cc4c(N5CCN(C(=O)NC(C)C)CC5)ccnn4c3)cc2)CCN(C2COC2)CC1 [Compound 844] | < 100 | < 10
13 | COC1(c2ccc(-c3cc4c(N5CCN(C(=O)NC(C)C)CC5)ccnn4c3)nc2)CCN(C(C)CF)CC1 (centres unmarked) [Compound 850] | < 100 | < 10
14 | COC1(c2ccc(-c3cc4c(N5CCN(C(=O)OC6COC6)CC5)ccnn4c3)c(F)c2)CCN(C(C)C)CC1 [Compound 737] | < 100 | < 10
15 | O=C(C1CC1)N1CCN(c2ccnn3cc(-c4ccc5c(c4)COC54CNC4)cc23)CC1 [Compound 120] | 100 to 500 | < 10
16 | O=C(C1CC1)N1CCN(c2ccnn3cc(-c4ccc(C5COCCN5)cc4)cc23)CC1 (centres unmarked) [Compound 464] | < 100 | < 10
17 | CC(C)NC(=O)N1CCN(c2ccnn3cc(-c4ccc([C@H]5CCN(C(C)C)C5)cc4)cc23)CC1 [Compound 533] | < 100 | < 10
18 | CCOC1(c2ccc(-c3cc4c(N5CCN(C(=O)[C@H]6C[C@H](C#N)C6)CC5)ccnn4c3)nc2)CCN(C(C)C)CC1 [Compound 871] | < 100 | < 10
19 | CCOC1(c2ccc(-c3cc4c(N5CCN(C(=O)OC6COC6)CC5)ccnn4c3)nc2)CCOCC1 [Compound 821] | < 100 | < 10
20 | CO[C@]1(c2ccc(-c3cc4c(N5CCN(C(=O)NC(C)C)CC5)ccnn4c3)cc2)CCCNC1 [Compound 542] | < 100 | < 10
21 | CC(C)N1CC2(CN(c3ccc(-c4cc5c(N6CCN(C(=O)[C@H]7CC[C@H](O)CC7)CC6)ccnn5c4)cc3)C2)C1 [Compound 441] | < 100 | < 10
22 | CCOC1(c2ccc(-c3cc4c(N5CCN(C(=O)C6CC6)CC5)ccnn4c3)nc2)CCN(C(C)C)CC1 [Compound 662] | < 100 | < 10
23 | COC1(c2ccc(-c3cc4c(N5CCN(C(=O)C6CC6)CC5)ccnn4c3)nc2)CCN([C@H](C)COC(F)F)CC1 [Compound 885] | < 100 | < 10
24 | COC1(c2ccc(-c3cc4c(N5CCN(C(=O)C6CC(C#N)C6)CC5)ccnn4c3)cc2)CN(C(C)C)C1 (centres unmarked) [Compound 655] | < 100 | < 10
25 | COC1(c2ccc(-c3cc4c(N5CCN(C(=O)NC(C)C)CC5)ccnn4c3)cc2)CN(C(C)C)C1 [Compound 593] | < 100 | < 10
26 | CC(C)N1CCN(c2ccc(-c3cc4c(N5CCN(C(=O)C6CC6)[C@H](C)C5)ccnn4c3)cc2)CC1 [Compound 318] | 100 to 500 | < 10

Row | SMILES | IC50 [1] [nM] | IC50 [2] [nM]
27 | CCOC(=O)N1CCN(c2ccnn3cc(-c4cnc(N5CCN(C(C)C)CC5)cn4)cc23)CC1 [Compound 448, ethyl 4-(6-(5-(4-isopropylpiperazin-1-yl)pyrazin-2-yl)pyrrolo[1,2-b]pyridazin-4-yl)piperazine-1-carboxylate] | 100 to 500 | < 10
28 | CCOC(=O)N1CCN(c2ccnn3cc(-c4ccc([C@@]5(F)CCCNC5)cc4)cc23)CC1 [Compound 480] | < 100 | < 10
29 | CC(C)NC(C)(CO)c1ccc(-c2cc3c(N4CCN(C(=O)C5CC5)CC4)ccnn3c2)cc1 (centres unmarked) [Compound 493] | < 100 | < 10
30 | CC(C)N1CC[C@@H](c2ccc(-c3cc4c(N5CCN(C(=O)C6CC6)CC5)ccnn4c3)cc2)C1 [Compound 203] | < 100 | < 10
31 | CC(C)N1CCC(c2ccc(-c3cc4c(N5CCN(C(=O)[C@H]6C[C@@](C)(O)C6)CC5)ccnn4c3)cc2)CC1 [Compound 421] | < 100 | < 10
32 | O=C(C1CC1)N1CCN(c2ccnn3cc(-c4ccc(N5CCN(CC(F)F)CC5)cc4)cc23)CC1 [Compound 359] | > 500 | < 10
33 | O=C(C1CC1)N1CCN(c2ccnn3cc(-c4cc5c(s4)CNCC5)cc23)CC1 [Compound 107] | < 100 | < 10
34 | O=C(C1CC1)N1CCN(c2ccnn3cc(-c4ccc(C5CCCN5)cn4)cc23)CC1 (centres unmarked) [Compound 453] | < 100 | < 10
35 | COC1(c2ccc(-c3cc4c(N5CCN(C(=O)C6CC6)CC5)ccnn4c3)cc2)CCN([C@H](C)COC(F)F)CC1 [Compound 884] | < 100 | < 10
36 | CCOC(=O)N1CCN(c2ccnn3cc(-c4ccc(C5CCN(C(C)C)CC5)cc4)cc23)CC1 [Compound 534] | < 100 | < 10
37 | CC(C)NC(=O)N1CCN(c2ccnn3cc(-c4ccc(C5(C)CCNCC5)cc4)cc23)CC1 [Compound 492] | < 100 | < 10
38 | CCNC(=O)N1CCN(c2ccnn3cc(-c4ccc([C@H]5CCN(C(C)C)C5)cn4)cc23)CC1 [Compound 496] | < 100 | < 10
39 | CC(C)N1CCC(c2ccc(-c3cc4c(N5CCN(C(=O)OC6CCOCC6)CC5)ccnn4c3)cc2)CC1 [Compound 709] | 100 to 500 | < 10
40 | CCN1CCN(c2ccc(-c3cc4c(N5CCN(C(=O)N6CCCC6)CC5)ccnn4c3)cc2)CC1 [Compound 327] | 100 to 500 | 10 to 50
41 | O=C(OC1COC1)N1CCN(c2ccnn3cc(-c4ccc([C@]5(F)CCCNC5)cc4)cc23)CC1 [Compound 558] | < 100 | < 10
42 | CCNC(=O)N1CCN(c2ccnn3cc(-c4ccc(C5(O)CCCN(C(C)C)C5)cc4)cc23)CC1 (centres unmarked) [Compound 351] | < 100 | < 10
43 | CC(C)N1CCCC(O)(c2ccc(-c3cc4c(N5CCN(C(=O)C6CC6)CC5)ccnn4c3)cc2)C1 (centres unmarked) [Compound 323] | < 100 | < 10
44 | CC(C)N1CCC[C@@H](c2ccc(-c3cc4c(N5CCN(C(=O)O[C@H]6CCOC6)CC5)ccnn4c3)cc2)C1 [Compound 826] | < 100 | < 10
45 | CCOC(=O)N1CCN(c2ccnn3cc(-c4ccc([C@@]5(OC)CCN(C(C)C)C5)cc4)cc23)CC1 [Compound 603] | < 100 | < 10
46 | CCOC(=O)N1CCN(c2ccnn3cc(-c4ccc([C@@]5(O)CCN(C(C)C)C5)cc4)cc23)CC1 [Compound 550] | < 100 | < 10
47 | CO[C@@]1(c2ccc(-c3cc4c(N5CCN(C(=O)C6CC6)CC5)ccnn4c3)cc2)CCN(C(C)C)C1 [Compound 573] | < 100 | < 10
48 | CC(C)NC(=O)N1CCN(c2ccnn3cc(-c4ccc([C@@]5(O)CCN(C(C)C)C5)cc4)cc23)CC1 [Compound 595] | < 100 | < 10
49 | CC(C)N1CCN(C)[C@](C)(c2ccc(-c3cc4c(N5CCN(C(=O)C6CC6)CC5)ccnn4c3)cc2)C1 [Compound 619] | < 100 | < 10
50 | CCOC(=O)N1CCN(c2ccnn3cc(-c4ccc(OC5CN(C(C)C)C5)cc4)cc23)CC1 [Compound 236] | 100 to 500 | < 10
51 | CC(C)N1CCC[C@H](c2ccc(-c3cc4c(N5CCN(C(=O)[C@H]6C[C@H](C#N)C6)CC5)ccnn4c3)nc2)C1 [Compound 654] | < 100 | < 10
52 | CC(C)N1CCC[C@@H](c2ccc(-c3cc4c(N5CCN(C(=O)NCCC#N)CC5)ccnn4c3)cc2)C1 [Compound 617] | 100 to 500 | < 10
